Article PMC6282105 (Molecular Pharmaceutics, 2018)

Columns and labels:
[1] = Stability of the building block toward SPPS reagents; format: physicochemical; conditions: SPPS conditions
[2] = target: T1, nitroreductase (NTR) (Escherichia coli, UniProt P38489); test: NTR-mediated removal of the CNBz moiety, followed by analytical HPLC; format: biochemical; conditions: 0.3 equiv NTR, NADH as cofactor, analytical HPLC (Figure S2)
T1 sequence (P38489 1-217): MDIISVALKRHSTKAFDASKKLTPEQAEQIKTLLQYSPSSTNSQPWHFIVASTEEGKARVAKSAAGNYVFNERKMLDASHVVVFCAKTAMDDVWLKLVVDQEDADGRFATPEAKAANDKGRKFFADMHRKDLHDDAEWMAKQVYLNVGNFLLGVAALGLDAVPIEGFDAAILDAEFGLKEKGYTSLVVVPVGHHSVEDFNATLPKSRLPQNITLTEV

SMILES: O=C(NCCCC(NC(=O)OCC1c2ccccc2-c2ccccc21)C(=O)O)NC(=O)OCc1ccc([N+](=O)[O-])cc1 (centres unmarked) [compound 1, 14-(9H-fluoren-9-yl)-1-(4-nitrophenyl)-3,5,12-trioxo-2,13-dioxa-4,6,11-triazatetradecane-10-carboxylic acid]
- stability toward 20% piperidine and TFA [1]: very stable
- time to full removal of the CNBz moiety [2]: ≤ 5 min
